Laboratory results reported in US6803374B2, “Compounds useful for treating hepatitis C virus” (priority 2001, dated 2004).

Target: T1, HCV NS5B RdRp genotype 1b (Hepatitis C virus genotype 1b, UniProt Q9WMX2)
T1 construct: The protein was expressed with an 18 amino acid C-terminal truncation to enhance the solubility; made in house; host or cells: E. coli BL21(DE3)
Assay: HCV NS5B RdRp enzyme assay
Format: biochemical
Details: IC50, HCV RdRp genotype 1b enzyme, C-terminal 18 aa truncated; average of single point IC50 values
Method: HCV NS5B RdRp cloning, expression and purification. The cDNA encoding the NS5B protein of HCV, genotype 1b, was cloned into the pET21a expression vector. The protein was expressed with an 18 amino acid C-terminal truncation to enhance the solubility. The E. coli competent cell line BL21(DE3) was used for expression of the protein. Cultures were grown at 37° C. for ˜4 hours until the cultures reached an optical density of 2.0 at 600 nm. The cultures were cooled to 20° C. and induced with 1 mM IPTG. Fresh ampicillin was added to a final concentration of 50 ug/ml and the cells were grown overnight at 20° C.
Cell pellets (3L) were lysed for purification to yield 15-24 mgs of purified NS5B. The lysis buffer consisted of 20 mM Tris-HCl, pH 7.4, 500 mM NaCl, 0.5% triton X-100, 1 mM DTT, 1 mM EDTA, 20% glycerol, 0.5 mg/ml lysozyme, 10 mM MgCl2, 15 ug/ml deoxyribonuclease I, and Complete TM protease inhibitor tablets (Roche). After addition of the lysis buffer, frozen cell pellets were resuspended using a tissue homogenizer. To reduce the viscosity of the sample, aliquots of the lysate were sonicated on ice using a microtip attached to a Branson sonicator. The sonicated lysate was centrifuged at 100,000×g for 1 hr at 4° C. and filtered through a 0.2 μm filter unit (Corning).
The protein was purified using three sequential chromatography steps: Heparin sepharose CL-6B, polyU sepharose 4B, and Hitrap SP sepharose (Pharmacia). The chromatography buffers were identical to the lysis buffer but contained no lysozyme, deoxyribonuclease I, MgCl2 or protease inhibitor and the NaCl concentration of the buffer was adjusted according to the requirements for charging the protein onto the column. Each column was eluted with a NaCl gradient which varied in length from 5-50 column volumes depending on the column type. After the final chromatography step, the resulting purity of the enzyme is >90% based on SDS-PAGE analysis. The enzyme was aliquoted and stored at −80° C.
HCV NS5B RdRp enzyme assay. HCV RdRp genotype 1b assays were run in assay buffer composed of 20 mM Tris-HCl, pH 7.5, 2.5 mM KCl, 5 mM MgCl2, 1 mM DTT, 1.6 U RNAse inhibitor (Promega N2515), in 96 well plates (Falcon 3918). All compounds were serially diluted in DMSO and diluted further in assay buffer such that the final concentration of DMSO in the assay was 2%. Compounds were serially diluted (3-fold each time) for a 7 point inhibition analysis. HCV RdRp genotype 1b enzyme was used at a final concentration of 28 nM. A polyA template was used at 28 nM, and the oligo-dT12-18 primer was used at 840 nM final concentration. Preannealed primer and template were obtained commercially (Amersham 27-787802). ^3H-UTP was used at 0.125 μCi (1 μM total UTP). Reaction was initiated by the addition of enzyme. Reactions were incubated at 30° C. for 45 min, and stopped by adding 30 ul of 20% ice cold TCA. Plates were chilled for 30 minutes and harvested onto Unifilter-96, GF/B plates (Packard, 6005177) using a Packard FilterMate Cell Harvester. The harvest plates were prewashed 3 times, 200 ul/well, with 100 mM NaPPi. Harvested filters were washed 30 times, 200 ul/well, with distilled water followed by ethanol. Filter plates were dried, and 30 ul/well microscint-20 was added. Plates were read on a Packard Top Count NXT.
The IC50 values for compounds were determined using […] different [I], combined with 7 nM enzyme, 800 ng of the template-primer polyC/oligoG12 (1:5 molar ratio), and 0.7 uM of ^3H GTP containing 1 uCi. The observed fractional activity (fa=vi/vo) was used in the equation IC50=[I]/(1/fa-1) to determine a single point IC50 value. Typically, the single point IC50 values derived from [I] that produced fractional activities in the range of 0.1 to 0.8 relative to the uninhibited control were averaged to calculate the IC50 value for each compound.

T1 sequence (Q9WMX2 2420-2992): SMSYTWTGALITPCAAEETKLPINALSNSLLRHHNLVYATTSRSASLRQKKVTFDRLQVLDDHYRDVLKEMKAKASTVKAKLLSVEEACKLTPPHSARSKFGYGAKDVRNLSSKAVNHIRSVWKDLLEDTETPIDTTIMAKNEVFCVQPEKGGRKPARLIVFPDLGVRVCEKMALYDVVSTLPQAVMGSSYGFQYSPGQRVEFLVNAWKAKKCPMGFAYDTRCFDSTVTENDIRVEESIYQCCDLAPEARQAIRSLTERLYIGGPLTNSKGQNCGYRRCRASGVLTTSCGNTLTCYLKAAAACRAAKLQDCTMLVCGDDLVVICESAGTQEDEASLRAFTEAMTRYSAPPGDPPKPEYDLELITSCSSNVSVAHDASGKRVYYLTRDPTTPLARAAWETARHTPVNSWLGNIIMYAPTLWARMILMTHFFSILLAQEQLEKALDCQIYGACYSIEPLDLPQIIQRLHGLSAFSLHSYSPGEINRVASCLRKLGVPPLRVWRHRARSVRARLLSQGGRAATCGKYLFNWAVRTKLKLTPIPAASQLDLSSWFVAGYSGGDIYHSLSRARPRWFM

Compound	IC50 [µM]
O=C(O)CNC(=O)c1ccc(-c2cccc(O)c2)c(COc2ccc(-c3nc4cc(-c5nnn[nH]5)ccc4n3C3CCCCC3)cc2)c1 [Example 74]	0.15
O=C(O)c1ccc(-c2cc3ccccc3o2)c(COc2ccc(-c3nc4cc(-c5nnn[nH]5)ccc4n3C3CCCCC3)cc2)c1 [Example 116]	0.17
O=C(c1ccc(-c2cccc(O)c2)c(COc2ccc(-c3nc4cc(-c5nnn[nH]5)ccc4n3C3CCCCC3)cc2)c1)N(CCO)CCO [Example 70]	0.5
O=C(O)c1ccc(-c2ccccc2)c(COc2ccc(-c3nc4cc(-c5nnn[nH]5)ccc4n3C3CCCCC3)cc2)c1 [Example 35]	0.07
O=C(O)C(=O)NS(=O)(=O)c1ccc2c(c1)nc(-c1ccc(OCc3ccccc3)cc1)n2C1CCCCC1 [Example 22, [2-(4-Benzyloxy-phenyl)-1-cyclohexyl-1H-benzoimidazole-5-sulfonylamino]-3-oxo-acetic acid]	8.09
CNC(=O)c1ccc(-c2ccc(C#N)cc2)c(COc2ccc(-c3nc4cc(-c5nnn[nH]5)ccc4n3C3CCCCC3)cc2)c1 [Example 49]	0.08
COc1ccc(-c2ccc(C(=O)NCC(=O)O)cc2COc2ccc(-c3nc4cc(-c5nnn[nH]5)ccc4n3C3CCCCC3)cc2)cc1OC [Example 98]	0.21
O=c1[nH]c(-c2ccc3c(c2)nc(-c2ccc(OCc4ccccc4)cc2)n3C2CCCCC2)no1 [Example 10, 3-{2-[4-(Benzyloxy)phenyl]-1-cyclohexyl-1H-benzimidazol-5-yl}-1,2,4-oxadiazol-5(4H)-one]	0.85
O=C(c1ccc(-c2ccc(F)c(Cl)c2)c(COc2ccc(-c3nc4cc(-c5nnn[nH]5)ccc4n3C3CCCCC3)cc2)c1)N1CCCC1 [Example 77]	1.2
CNC(=O)c1ccc(-c2ccsc2)c(COc2ccc(-c3nc4cc(-c5nnn[nH]5)ccc4n3C3CCCCC3)cc2)c1 [Example 136]	0.22
CC(=O)c1ccc(-c2ccc(C(=O)O)cc2COc2ccc(-c3nc4cc(-c5nnn[nH]5)ccc4n3C3CCCCC3)cc2)cc1 [Example 45]	0.08
COc1ccc(-c2ccc(C(=O)O)cc2COc2ccc(-c3nc4cc(-c5nnn[nH]5)ccc4n3C3CCCCC3)cc2)cc1OC [Example 44]	0.08
O=C(O)c1ccc(-c2ccc(O)cc2)c(COc2ccc(-c3nc4cc(-c5nnn[nH]5)ccc4n3C3CCCCC3)cc2)c1 [Example 46]	0.06
O=C(NCCCO)c1ccc(-c2ccc(F)c(Cl)c2)c(COc2ccc(-c3nc4cc(-c5nnn[nH]5)ccc4n3C3CCCCC3)cc2)c1 [Example 78]	0.69
O=C(O)c1ccc(-c2ccco2)c(COc2ccc(-c3nc4cc(-c5nnn[nH]5)ccc4n3C3CCCCC3)cc2)c1 [Example 117]	0.29
COc1ccc(-c2ccc(C(=O)N3CCOCC3)cc2COc2ccc(-c3nc4cc(-c5nnn[nH]5)ccc4n3C3CCCCC3)cc2)cc1OC [Example 88]	0.47
O=C(O)c1ccc(C(=O)NS(=O)(=O)c2ccc3c(c2)nc(-c2ccc(OCc4ccccc4)cc2)n3C2CCCCC2)cc1 [Example 18, 4-[2-(4-Benzyloxyphenyl)-1-cyclohexyl-1H-benzimidazole-5-sulfonylaminocarbonyl]-benzoic acid]	1.52
O=Cc1ccoc1-c1ccc(C(=O)O)cc1COc1ccc(-c2nc3cc(-c4nnn[nH]4)ccc3n2C2CCCCC2)cc1 [Example 122]	0.67
CNC(=O)c1ccc(-c2ccc(F)c(Cl)c2)c(COc2ccc(-c3nc4cc(-c5nnn[nH]5)ccc4n3C3CCCCC3)cc2)c1 [Example 79]	0.55

Compound	IC50 [µM]
CC(C)(C)OC(=O)CNC(=O)c1ccc(-c2ccsc2)c(COc2ccc(-c3nc4cc(-c5nnn[nH]5)ccc4n3C3CCCCC3)cc2)c1 [Example 141]	2.8
O=C(NC(Cc1ccc(O)cc1)C(=O)O)c1ccc(-c2cccc(O)c2)c(COc2ccc(-c3nc4cc(-c5nnn[nH]5)ccc4n3C3CCCCC3)cc2)c1 (stereo not shown) [Example 53]	0.57
COc1ccc(-c2ccc(C(=O)NCCCO)cc2COc2ccc(-c3nc4cc(-c5nnn[nH]5)ccc4n3C3CCCCC3)cc2)cc1OC [Example 90]	0.63
O=C(O)c1ccc(-c2ccccc2-c2ccccc2)c(COc2ccc(-c3nc4cc(-c5nnn[nH]5)ccc4n3C3CCCCC3)cc2)c1 [Example 29]	0.25
O=C(O)CNC(=O)c1ccc(-c2ccc3[nH]cc(C(=O)C(F)(F)F)c3c2)c(COc2ccc(-c3nc4cc(-c5nnn[nH]5)ccc4n3C3CCCCC3)cc2)c1 [Example 153]	0.26
O=Cc1ccccc1-c1ccc(C(=O)O)cc1COc1ccc(-c2nc3cc(-c4nnn[nH]4)ccc3n2C2CCCCC2)cc1 [Example 36]	0.83
O=C(NCCCO)c1ccc(-c2cccc(O)c2)c(COc2ccc(-c3nc4cc(-c5nnn[nH]5)ccc4n3C3CCCCC3)cc2)c1 [Example 67]	0.79
O=C(NC(Cc1ccc(O)cc1)C(=O)O)c1ccc(-c2ccsc2)c(COc2ccc(-c3nc4cc(-c5nnn[nH]5)ccc4n3C3CCCCC3)cc2)c1 (stereo not shown) [Example 129]	0.29
COc1ccc(-c2ccc(Cl)cc2)c(COc2ccc(-c3nc4cc(-c5nnn[nH]5)ccc4n3C3CCCCC3)cc2)c1 [Example 3, 2-{4-[(4′-Chloro-4-methoxy-1,1′-biphenyl-2-yl)methoxy]phenyl}-1-cyclohexyl-5-(1H-tetrazol-5-yl)-1H-benzimidazole]	0.14
NC(=O)CCNC(=O)c1ccc(-c2ccc3[nH]cc(C(=O)C(F)(F)F)c3c2)c(COc2ccc(-c3nc4cc(-c5nnn[nH]5)ccc4n3C3CCCCC3)cc2)c1 [Example 155]	0.27
CC(NC(=O)c1ccc(-c2ccc(F)c(Cl)c2)c(COc2ccc(-c3nc4cc(-c5nnn[nH]5)ccc4n3C3CCCCC3)cc2)c1)C(=O)O (stereo not shown) [Example 56]	0.19
CNC(=O)c1ccc(-c2ccc(Cl)cc2)c(COc2ccc(-c3nc4cc(-c5nnn[nH]5)ccc4n3C3CCCCC3)cc2)c1 [Example 106]	0.66
CC(C)(C)OC(=O)C(Cc1cc2ccccc2[nH]1)NC(=O)c1ccc(-c2ccc(F)c(Cl)c2)c(COc2ccc(-c3nc4cc(-c5nnn[nH]5)ccc4n3C3CCCCC3)cc2)c1 (stereo not shown) [Example 85]	2.3
O=Cc1ccc(-c2ccc(C(=O)O)cc2COc2ccc(-c3nc4cc(-c5nnn[nH]5)ccc4n3C3CCCCC3)cc2)cc1 [Example 37]	0.07
O=C(NCCCO)c1ccc(-c2ccsc2)c(COc2ccc(-c3nc4cc(-c5nnn[nH]5)ccc4n3C3CCCCC3)cc2)c1 [Example 135]	0.7
CC(C)(C)OC(=O)C(Cc1ccc(OC(C)(C)C)cc1)NC(=O)c1cccc(COc2ccc(-c3nc4cc(-c5nnn[nH]5)ccc4n3C3CCCCC3)cc2)c1 (stereo not shown) [Example 51]	0.93
O=C(O)c1ccc(-c2ccc3[nH]ccc3c2)c(COc2ccc(-c3nc4cc(-c5nnn[nH]5)ccc4n3C3CCCCC3)cc2)c1 [Example 121]	0.03
O=C(c1ccc(-c2ccsc2)c(COc2ccc(-c3nc4cc(-c5nnn[nH]5)ccc4n3C3CCCCC3)cc2)c1)N(CCO)CCO [Example 138]	3
